Source: patent US12303524B2, “Compositions comprising S-adenosylmethionine and a gallic acid ester” (MSI-195 HOLDINGS, LLC, priority 2012, dated 2025)

Legend:
[1] = tested on: Caco-2 cell monolayers; assay: Permeability of SAMe across Caco-2 cell monolayers with propyl gallate (Example 3); conditions: for apparent permeability coefficient Papp, apical to basolateral / apparent permeability coefficient Papp, basolateral to apical: SAMe salt alone
Method: The Caco-2 cell line is derived from a human colorectal carcinoma and is widely used for in vitro cell culture models for the study of gastrointestinal drug absorption (Stewart, B., (1995) Pharm. Res. 12:693). In these models, pure cell lines are grown on a semi-permeable membrane. Drug formulations are placed on the apical or basolateral side of the cell monolayer and transport is determined via measurement of drug concentrations on the other side of the membrane.
The Caco-2 cell line utilized here was from the American Type Culture Collection (ATCC). Caco-2 cells are grown in Dulbecco's modified Eagle's medium (DMEM, Gibco) supplemented with 20% FBS (fetal bovine serum, Gibco), 100 uM non-essential amino acids (NEAA, Gibco) and 2 mM L-glutamine (Gibco). A Beckton Dickinson BIOCOAT® HTS Caco-2 Assay System Kit was used resulting in 6.6×10^5 cells/cm^2 seeding density (BIOCOAT is a registered trademark of Collaborative Biomedical Products, Inc., Bedford, Massachusetts, USA). The cells used in transport studies were grown for 3 days before the experiments. The culturing conditions were 37° C. in an atmosphere of 5% CO2 and 100% humidity.
A 2 mM aqueous solution of SAMe disulfate tosylate was added on the apical or basolateral side according to the manufacturer's procedure for the Caco-2 kit.
The permeability (Papp) of SAMe is calculated using the following formula: […]
Where dQ/dt is the rate of permeation, Co is the initial concentration of test agent, and A is the area of the monolayer.

[2] = PAMPA permeability of SAMe with and without propyl gallate (Example 4); format: in vitro ADME; conditions: for Average Effective Permeability: SAMe 2 mM, 5 hr
Method: Using a PAMPA (parallel artificial membrane permeability assay) model, the permeability of SAMe was measured in the presence and absence of propyl gallate.
PAMPA methods were used to determine the permeability of substances from a donor compartment, through a lipid-infused artificial membrane into an acceptor compartment. A multi-well microtitre plate was used for the donor and a membrane/acceptor compartment is placed on top. At the beginning of the test, SAMe disulfate tosylate (with or without different concentrations of propyl gallate as indicated in Table 2 below) was added to the donor compartment, and the acceptor compartment remained drug-free. After an incubation period, the compartments were separated and the amount of SAMe was measured in each compartment. Mass balance allows calculation of SAMe that remains in the membrane.

[3] = Beagle pharmacokinetics of SAMe tablets with various doses of propyl gallate (Example 6); conditions: for AUC(0-inf.) ± SD / AUC(0-t) / Cmax average of individuals / T1/2 ± SD / Tmax ± SD: oral, fasted beagles
Method: Tablets comprising SAMe and various amounts of propyl gallate were generated by mixing S-adenosyl-L-methionine disulfate tosylate granules (equivalent to 400 mg of SAMe ion) with the various amounts of propyl gallate listed in Table 4 below. Each mixture was pressed into a tablet and coated followed by dissolution profiling and in vivo pharmacokinetic analysis using beagle dogs.
For in vivo studies, fasted male beagle dogs (7-10 kg) were used as described above. Each group (6 dogs for SAMe/propyl gallate and 6 dogs for the SAMe control lacking propyl gallate) were dosed with a single orally administered enteric coated tablet, under fasted conditions, followed by 5 mL of purified water orally with a syringe to facilitate swallowing. Pharmacokinetic blood samples (2 mL each) for SAMe analysis were collected from the jugular vein using the following time points: pre-dose, 20 and 40 minutes, 1, 1.5, 2, 3, 4, 6, and 8 hours after treatment. The venipuncture blood samples were collected into tubes containing the anticoagulant K2-EDTA, and stored on wet ice pending processing. Following collection, samples were centrifuged (at 4° C.) to separate the plasma fraction from the blood cells. The resulting plasma fraction was recovered and stored frozen (at −80° C.) using polypropylene tubes pending bioanalytical analysis.
The concentration of SAMe in dog plasma was determined using the well established LC/MS/MS method. This method employs stable-isotope dilution liquid chromatography-electrospray […] tandem mass spectrometry (LC-ESI-MS/MS) to determine SAMe and SAH in plasma. The analysis used to calculate the main pharmacokinetic parameters (Cmax, Tmax and AUC) was conducted using GraphPad Prism® 5 software.

[4] = background statement; cited from earlier work
[5] = Plasma SAMe in beagles after tablets of SAMe co-formulated with alkyl gallates (Example 1); format: in vivo, Beagle dogs; conditions: single enteric coated tablet, 400 mg SAMe ion co-formulated with 25 mg gallic acid ester, fasted male beagles, FIG. 1
Method: Tablets comprising SAMe and various alkyl gallates of different chemical structure were generated by mixing SAMe with either methyl gallate, ethyl gallate, butyl gallate, isobutyl gallate, isoamyl gallate or octyl gallate (see structures below). Tablets were then administered to Beagle dogs and blood samples were withdrawn over time. Analysis of concentrations of SAMe in plasma was used to compare the effects of these gallic acid esters on the uptake of orally administered SAMe in the blood.
Tablets were generated by mixing 400 mg SAMe ion (from SAMe disulfate tosylate) with 25 mg gallic acid ester along with excipients (microcrystalline cellulose, sodium starch glycolate, silicon dioxide, and magnesium stearate) to make up the ˜1025 mg tablet. A commercial seal coat and then a commercial enteric coat was applied to the tablets prior to dissolution testing. Detailed dissolution profiling was performed according to USP standards at either pH 6.8 or 6.0 on each set of tablets to ensure that adequate dissolution was achieved prior to in vivo pharmacokinetic analysis.
The study protocol was approved by the institution's Animal Care Committee, and all animals were cared for according to regulations proposed by Agriculture Canada and the USDA.
Ten different formulations were tested in the present study. 400 mg SAMe co-formulated with 25 mg propyl gallate was compared to: SAMe control tablets (i.e., with no propyl gallate); SAMe tablets co-administered with separate 25 mg propyl gallate tablets; a commercially available SAMe product (400 mg); or 400 mg SAMe with 25 mg of either methyl gallate, ethyl gallate, butyl gallate, isobutyl gallate, isoamyl gallate or octyl gallate.

[6] = Plasma SAMe in beagles after capsules of SAMe with gallate-related molecules (Example 2); format: in vivo, Beagle dogs; conditions: single capsule, 100 mg SAMe ion with 100 mg agent, versus BHT, propyl paraben and gallic acid, FIGS. 2A and 2B
Method: BHT, propyl paraben and propyl gallate are food-grade antioxidants which have often been used in combination. […] The capsules also contained additional excipients (Microcrystalline cellulose, Sodium Starch Glycolate, Colloidal Silicon Dioxide, and Magnesium Stearate). Capsules were manually filled and in some embodiments, a layer of commercial seal coat was applied to the capsules using a fluid bed coater. Beagle dogs were administered a single orally delivered dose as described above.

[7] = control tablet 400 mg SAMe, 0 mg Propyl Gallate
[8] = tablet 400 mg SAMe, 6.25 mg Propyl Gallate
[9] = tablet 400 mg SAMe, 25 mg Propyl Gallate
[10] = tablet 400 mg SAMe, 100 mg Propyl Gallate

For `C[S+](CC[C@H](N)C(=O)[O-])C[C@H]1O[C@@H](n2cnc3c(N)ncnc32)[C@H](O)[C@@H]1O.O=S(=O)(O)CCCCS(=O)(=O)O` (stereo partly drawn) [SAMe 1,4 butanedisulfonate], the “apparent permeability coefficient Papp, apical to basolateral” value [1] was 0.5 ×10⁻⁶ cm/s and the “apparent permeability coefficient Papp, basolateral to apical” value [1] was 0.6 ×10⁻⁶ cm/s.
For `C[S+](CC[C@H](N)C(=O)[O-])C[C@H]1O[C@@H](n2cnc3c(N)ncnc32)[C@H](O)[C@@H]1O` (stereo partly drawn) [SAMe, S-adenosyl-L-methionine], the “Average Permeability Coefficient Apical→Basolateral” value ([1]; Caco-2) was 1.6 ×10⁻⁶ cm/s, the “Average Permeability Coefficient Basolateral→Apical” value ([1]; Caco-2) was 1.7 ×10⁻⁶ cm/s and the “transport of SAMe across the PAMPA membrane” value [2] was “essentially no transport”. For the same compound, the “Average Effective Permeability” value ([2]; Propyl Gallate 0 mM) was 0.42 ×10⁻⁶ cm/s, the “Average Effective Permeability” value ([2]; Propyl Gallate 0.2 mM) was 0.2 ×10⁻⁶ cm/s and the “Average Effective Permeability” value ([2]; Propyl Gallate 2 mM) was 0.48 ×10⁻⁶ cm/s. For the same compound, the “AUC(0-inf.) ± SD” value [3, 7] was 15,186 ± 6,831 hr*ng/mL, the “AUC(0-t)” value [3, 7] was 14,756 hr*ng/mL and the “Cmax average of individuals” value [3, 7] was 6731 ng/mL. The “T1/2 ± SD” value [3, 7] was 1.4 ± 0.4 h, the “Tmax ± SD” value [3, 7] was 1.8 ± 0.7 h and the “AUC(0-inf.) ± SD” value [3, 8] was 21,734 ± 9848 hr*ng/mL. The “AUC(0-t)” value [3, 8] was 21,395 hr*ng/mL, the “Cmax average of individuals” value [3, 8] was 11,269 ng/mL and the “T1/2 ± SD” value [3, 8] was 1.4 ± 0.5 h. For the same compound, the “Tmax ± SD” value [3, 8] was 1.4 ± 0.8 h, the “AUC(0-inf.) ± SD” value [3, 9] was 25,159 ± 13,033 hr*ng/mL and the “AUC(0-t)” value [3, 9] was 24,847 hr*ng/mL. For the same compound, the “Cmax average of individuals” value [3, 9] was 15,333 ng/mL, the “T1/2 ± SD” value [3, 9] was 1.5 ± 0.4 h and the “Tmax ± SD” value [3, 9] was 1.2 ± 0.5 h. The “AUC(0-inf.) ± SD” value [3, 10] was 34,305 ± 18,484 hr*ng/mL, the “AUC(0-t)” value [3, 10] was 34,078 hr*ng/mL and the “Cmax average of individuals” value [3, 10] was 18,700 ng/mL. For the same compound, the “T1/2 ± SD” value [3, 10] was 1.0 ± 0.2 h, the “Tmax ± SD” value [3, 10] was 1.6 ± 0.7 h and the “uptake of exogenous SAMe” value [4] was under 5%.
In the case of `CCCCOC(=O)c1cc(O)c(O)c(O)c1` [butyl gallate], the “maximum SAMe plasma concentration (Cmax), uptake into the plasma” value (“maximum SAMe plasma concentration (Cmax)” for short) [5] is reported as “did not result in pharmacokinetics even close to that of SAMe-propyl gallate formulations”.
For `CCOC(=O)c1cc(O)c(O)c(O)c1` [ethyl gallate], the “maximum SAMe plasma concentration (Cmax)” value [5] was “superior uptake into the plasma”.
For `CC(C)CCOC(=O)c1cc(O)c(O)c(O)c1` [isoamyl gallate], the “maximum SAMe plasma concentration (Cmax)” value [5] was “superior uptake into the plasma”.
For `CCCCCCCCOC(=O)c1cc(O)c(O)c(O)c1` [octyl gallate], the “maximum SAMe plasma concentration (Cmax)” value [5] was “superior uptake into the plasma”.
With `CCCOC(=O)c1cc(O)c(O)c(O)c1` [propyl gallate] the “plasma SAMe Cmax and AUC, SAMe uptake into the blood” value [6] was “superior and surprising ability of propyl gallate to increase SAMe uptake into the blood”, the “effect of propyl gallate on SAMe transport across the PAMPA membrane” value ([2]; propyl gallate at 2.0 mM) was “no effect on SAMe transport” and the “relationship of propyl gallate dose with SAMe uptake in vivo” value ([3]; dog, in vivo) was “dose-response relationship with SAMe uptake in vivo”. For the same compound, the “maximum SAMe plasma concentration (Cmax)” value [5] was “superior uptake into the plasma”.
In the case of “S-adenosyl-L-methionine disulfate tosylate [SAMe disulfate tosylate]”, the “apparent permeability coefficient Papp, apical to basolateral” value [1] is reported as 0.41 ×10⁻⁶ cm/s and the “apparent permeability coefficient Papp, basolateral to apical” value [1] is reported as 0.5 ×10⁻⁶ cm/s.
